What was measured:
[1] = 101.3 kPa, Liquid; for viscosity: Falling or rolling sphere viscometry; for speed of sound: Frequency=3 MHz, Sing-around technique in a fixed-path interferometer; for mass density: Vibrating tube method
[2] = xn = mol fraction of the nth substance listed; conditions: 101 kPa, Liquid, x2 = 0; for viscosity: Falling or rolling sphere viscometry; for speed of sound: Frequency=3 MHz, Sing-around technique in a fixed-path interferometer; for mass density: Vibrating tube method

CCCC[n+]1ccn(C)c1.O=S(=O)([N-]S(=O)(=O)C(F)(F)F)C(F)(F)F
[1]
Conditions	mass density [kg/m3]	speed of sound [m/s]	viscosity [mPa·s]
298.15 K	1436.02	1227.3	51.15
303.15 K	1431.22	1216.3	41.88
308.15 K	1426.43	1205.5	34.58
313.15 K	1421.64	1194.7	28.98
318.15 K	1416.84	1184	24.6
323.15 K	1411.89	1173.5	21.1

CCCCO [butan-1-ol] + CCCC[n+]1ccn(C)c1.O=S(=O)([N-]S(=O)(=O)C(F)(F)F)C(F)(F)F
[2]
Conditions	mass density [kg/m3]	speed of sound [m/s]	viscosity [mPa·s]
298.15 K	806.704	1242.4	2.57
303.15 K	802.704	1225.5	2.26
308.15 K	798.992	1208.7	1.99
313.15 K	795.065	1192	1.77
318.15 K	791.094	1175.4	1.58
323.15 K	787.075	1158.8	1.41

CCCO [propan-1-ol] + CCCC[n+]1ccn(C)c1.O=S(=O)([N-]S(=O)(=O)C(F)(F)F)C(F)(F)F
[2]
Conditions	mass density [kg/m3]	speed of sound [m/s]	viscosity [mPa·s]
298.15 K	799.924	1206.6	1.89
303.15 K	795.888	1189.5	1.69
308.15 K	791.815	1172.5	1.51
313.15 K	787.7	1155.6	1.35
318.15 K	783.538	1138.8	1.22
323.15 K	779.321	1122	1.09
